Data as given in article PMC4060991, “The Human Orphan Nuclear Receptor Tailless (TLX, NR2E1) Is Druggable” (PLoS ONE, 2014).
Structures can show the parent of a compound that is named as a salt.

Target: TLX LBD (Homo sapiens, UniProt Q9Y466)
Assay: Differential scanning fluorimetry (DSF) on purified TLX LBD;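 also: thermal unfolding followed by Sypro-Orange fluorescence (excitation 465 nm, emission 610 nm) in 384-well plates, Tm taken from the first derivative of the denaturation curve, duplicate samples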
Type: binding
Set-up: cDNA fragments encoding human TLX LBD (a.a. 187–385) were cloned; His6 followed by TEV protease cleavage site (N); made in house; host or cells: E. coli BL21 (DE3) star
Settings: compound 500 µM

Sequence of TLX LBD (Q9Y466 187-385): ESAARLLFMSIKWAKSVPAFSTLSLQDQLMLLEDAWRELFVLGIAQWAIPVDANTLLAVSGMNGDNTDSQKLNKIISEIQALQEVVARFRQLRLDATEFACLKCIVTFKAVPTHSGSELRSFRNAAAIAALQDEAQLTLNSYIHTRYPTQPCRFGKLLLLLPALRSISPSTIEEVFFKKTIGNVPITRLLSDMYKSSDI

| Molecule | hit in DSF screen (able to bind TLX LBD, Tm shift 0.9°C or more), Table S1 |
| --- | --- |
| Cc1cc(C(C)Nc2ccccc2)c2nc(N3CCOCC3)cc(=O)n2c1 (stereo not shown) [TGX-221] | Hits from DSF |
| O=C(c1ccc(OCCN2CCCCC2)cc1)c1c(-c2ccc(O)cc2)sc2cc(O)ccc12 [Raloxifene, reference compound] | Hits from DSF |
| COC1CC(CC2CCC(C)C(C(C)C(=O)O)O2)OC2(OC(C)(C3CCC(C)(C4OC(C5OC(O)(CO)C(C)CC5C)CC4C)O3)CC2C)C1C (stereo not shown) [2-[6-[[2-[5-[5-[6-hydroxy-6-(hydroxymethyl)-3,5-dimethyloxan-2-yl]-3-methyloxolan-2-yl]-5-methyloxolan-2-yl]-9-methoxy-2,4,10-trimethyl-1,6-dioxaspiro[4.5]decan-7-yl]methyl]-3-methyloxan-2-yl]propanoic acid] | Hits from DSF |
| COc1cc(Nc2ncc3c(n2)-c2ccc(Cl)cc2C(c2c(F)cccc2OC)=NC3)ccc1C(=O)O [MLN8237] | Hits from DSF |
| O=[N+]([O-])c1cc(C(F)(F)F)cc([N+](=O)[O-])c1CCl [2-(chloromethyl)-1,3-dinitro-5-(trifluoromethyl)benzene] | Hits from DSF |
| O=C(O)c1ccc(NC(c2ccccc2)c2ccc3cccnc3c2O)cc1 (stereo not shown) [4-[[(8-hydroxyquinolin-7-yl)-phenylmethyl]amino]benzoic acid] | Hits from DSF |
| CC(C)C1(Cl)CCC2C3(C)CCCC(C)(C(=O)O)C3CC(Cl)C2(Cl)C1Cl (stereo not shown) [7,8,8a,9-tetrachloro-1,4a-dimethyl-7-propan-2-yl-2,3,4,4b,5,6,8,9,10,10a-decahydrophenanthrene-1-carboxylic acid] | Hits from DSF |
| CC(C)c1cnn2c(NCc3ccccc3)cc(NCCCCCCN)nc12 [N5-(6-Aminohexyl)-3-isopropyl-N7-benzylpyrazolo[1,5-a]pyrimidine-5,7-diamine] | Hits from DSF |
| O=C1c2ccccc2C(=O)C1C(c1ccc([N+](=O)[O-])cc1)C1C(=O)c2ccccc2C1=O [2-[(1,3-dioxoinden-2-yl)-(4-nitrophenyl)methyl]indene-1,3-dione] | Hits from DSF |
| CO[C@H]1C[C@@H]2CC[C@@H](C)[C@@](O)(O2)C(=O)C(=O)N2CCCC[C@H]2C(=O)O[C@H]([C@H](C)C[C@@H]2CC[C@@H](OP(C)(C)=O)[C@H](OC)C2)CC(=O)[C@H](C)/C=C(\C)[C@@H](O)[C@@H](OC)C(=O)[C@H](C)C[C@H](C)/C=C/C=C/C=C/1C [Deforolimus] | Hits from DSF |
| CCN1CCN(C(=O)Cc2ccc(Nc3ncc(F)c(Nc4ccc(C(=O)Nc5ccccc5Cl)cc4)n3)cc2)CC1 [Aurora A Inhibitor I] | Hits from DSF |
| Daptomycin [reference compound] | Hits from DSF |
| CCP(CC)CC.[Au+].[Cl-] [Chlorogold; Triethylphosphane] | Hits from DSF |
| C[C@@H](NCCCc1cccc(C(F)(F)F)c1)c1cccc2ccccc12 [Cinacalcet hydrochloride, reference compound] | Hits from DSF |
| CCCCCCCCCCCCC(O)C(=O)O (stereo not shown) [2-hydroxytetradecanoic acid] | Hits from DSF |
| N#C/C(=C\c1ccc2ccccc2c1)C(=O)c1ccccc1 [(E)-2-(benzoyl)-3-naphthalen-2-ylprop-2-enenitrile] | Hits from DSF |
| N#CCNC(=O)c1ccc(-c2ccnc(Nc3ccc(N4CCOCC4)cc3)n2)cc1 [CYT387] | Hits from DSF |
| CCC[CH2][Pb]([Cl])([CH2]CCC)[CH2]CCC [Tributyl(chloro)plumbane] | Hits from DSF |
| C[C@]12CC[C@H]3[C@@H](CCC4=CC(=O)CC[C@@]43C)[C@@H]1CC[C@@H]2OC(=O)CCC1CCCC1 [Testosterone cypionate, reference compound] | Hits from DSF |
| O=C(CCc1ccc(O)cc1)c1c(O)cc(O)cc1O [Phloretin] | Hits from DSF |
| COc1cccc2cc(-c3nc([C@H]4CC[C@H](C(=O)O)CC4)n4ncnc(N)c34)[nH]c12 [OSI-027] | Hits from DSF |
| CC(=O)[O][Hg][c]1c(C)c(C)c(C)c(C)c1C [acetyloxy-(2,3,4,5,6-pentamethylphenyl)mercury] | Hits from DSF |
| O=C([O][Hg][CH2]C1COC([CH2][Hg][O]C(=O)c2ccccc2)CO1)c1ccccc1 (stereo not shown) [benzoyloxy-[[5-(benzoyloxymercuriomethyl)-1,4-dioxan-2-yl]methyl]mercury] | Hits from DSF |

| Molecule | hit in DSF screen (able to bind TLX LBD, Tm shift 0.9°C or more), Table S1 |
| --- | --- |
| CNC(=O)ON(C(C)=O)C(=O)NC [[acetyl(methylcarbamoyl)amino] N-methylcarbamate] | Hits from DSF |
| Clc1ccccc1C(c1ccccc1)(c1ccccc1)n1ccnc1 [Clotrimazole, reference compound] | Hits from DSF |
| CC(C)(C)OC(=O)N[C@H]1CCCCC/C=C\[C@@H]2C[C@@]2(C(=O)NS(=O)(=O)C2CC2)NC(=O)[C@@H]2C[C@@H](OC(=O)N3Cc4cccc(F)c4C3)CN2C1=O [Danoprevir] | Hits from DSF |
| CO[C@H]1C[C@@H]2CC[C@@H](C)[C@@](O)(O2)C(=O)C(=O)N2CCCC[C@H]2C(=O)O[C@H]([C@H](C)C[C@@H]2CC[C@@H](OCCO)[C@H](OC)C2)CC(=O)[C@H](C)/C=C(\C)[C@@H](O)[C@@H](OC)C(=O)[C@H](C)C[C@H](C)/C=C/C=C/C=C/1C [Everolimus (RAD001), Everolimus, reference compound] | Hits from DSF |
| Cc1ccc(NC(=O)c2ccc(CN3CCN(C)CC3)cc2)cc1Nc1nc(-c2cccnc2)cs1 [Masitinib] | Hits from DSF |
| Nc1ncnc2c1c(-c1cccc(OCc3ccccc3)c1)cn2C1CC(CN2CCCC2)C1 (stereo not shown) [NVP-ADW742] | Hits from DSF |
| CC(=O)[C@H]1CC[C@H]2[C@@H]3CCC4=CC(=O)CC[C@]4(C)[C@H]3CC[C@]12C [Progesterone, reference compound] | Hits from DSF |
| Kauroic acid | Hits from DSF |
| CC(C)n1c(/C=C/C(O)CC(O)CC(=O)O)c(-c2ccc(F)cc2)c2ccccc21 (stereo not shown) [Fluvastatin Sodium, reference compound] | Hits from DSF |
| [Cl][Cd][Cl] [Dichlorocadmium] | Hits from DSF |
| Cn1cc(-c2ccc3nnc(Sc4ccc5ncccc5c4)n3n2)cn1 [SGX-523] | Hits from DSF |
| FC(F)c1nc2ccccc2n1-c1nc(N2CCOCC2)nc(N2CCOCC2)n1 [ZSTK474] | Hits from DSF |
| CC(=O)[O][Pb]([O]C(C)=O)([c]1ccccc1)[c]1ccccc1 [[acetyloxy-di(phenyl)plumbyl] acetate] | Hits from DSF |
| Acetyloxymercury; Phenanthrene | Hits from DSF |
| CC(=O)N1CCN(c2ccc(OCC3COC(Cn4ccnc4)(c4ccc(Cl)cc4Cl)O3)cc2)CC1 (stereo not shown) [Ketoconazole, reference compound] | Hits from DSF |
| CCCCCC(CN1CCOCC1)C(=O)C=Cc1ccccc1 (stereo not shown) [4-(morpholin-4-ylmethyl)-1-phenylnon-1-en-3-one] | Hits from DSF |
| CC(=O)OC(C)(C)/C=C/C(=O)[C@](C)(O)[C@H]1[C@H](O)C[C@@]2(C)[C@@H]3CC=C4[C@@H](C[C@H](O)C(=O)C4(C)C)[C@]3(C)C(=O)C[C@]12C [[(E,6R)-6-[(2S,8S,9R,10R,13R,14S,16R,17R)-2,16-dihydroxy-4,4,9,13,14-pentamethyl-3,11-dioxo-2,7,8,10,12,15,16,17-octahydro-1H-cyclopenta[a]phenanthren-17-yl]-6-hydroxy-2-methyl-5-oxohept-3-en-2-yl] acetate] | Hits from DSF |
| CC[C@H](CO)Nc1nc(NCc2ccccc2)c2ncn(C(C)C)c2n1 [Roscovitine (CYC202), Roscovitine] | Hits from DSF |
| CCC1=C[C@@H]2CN(C1)Cc1c([nH]c3ccccc13)[C@@](C(=O)OC)(c1cc3c(cc1OC)N(C)[C@H]1[C@@](O)(C(=O)OC)[C@H](OC(C)=O)[C@]4(CC)C=CCN5CC[C@]31[C@@H]54)C2 [Vinorelbine, reference compound] | Hits from DSF |
| Cc1ccc(S(=O)(=O)c2ccc([N+](=O)[O-])o2)cc1 [2-(4-methylphenyl)sulfonyl-5-nitrofuran] | Hits from DSF |
| N#Cc1c(O)c2c(-c3ccc(-c4ccccc4O)cc3)csc2[nH]c1=O [6,7-Dihydro-4-hydroxy-3-(2'-hydroxy[1,1'-biphenyl]-4-yl)-6-oxo-thieno[2,3-b]pyridine-5-carbonitrile] | Hits from DSF |
| Cc1cc(N)c2ccccc2[n+]1CCCCCCCCCC[n+]1c(C)cc(N)c2ccccc21.[Cl-].[Cl-] [1-[10-(4-amino-2-methylquinolin-1-ium-1-yl)decyl]-2-methylquinolin-1-ium-4-amine chloride] | Hits from DSF |
| CCOC(=O)N1CCC(=C2c3ccc(Cl)cc3CCc3cccnc32)CC1 [Loratadine, reference compound] | Hits from DSF |
